Experimental data: patent US10669238B2, “Irreversible bruton's tyrosine kinase inhibitor” (HEFEI INSTITUTES OF PHYSICAL SCIENCE, CHINESE ACADEMY OF …, priority 2016, dated 2020)

Columns and labels:
[1] = test system: bone marrow plasma cell tumor cells AMO-1; experiment: Cell proliferation (Cell Titer-Glo), AMO-1; type: cell-based; conditions: Homo sapiens, AMO1; AMO-1, 72 hours; read-out: Effects on cell proliferation (GI50)
Procedure: (§1) The selectivity of Compound 1 in inhibiting the proliferation of cancer cells was further evaluated by testing the effect of Btk inhibitors on the growth of cancer cells. […]
(§2) In this example different concentrations (0.000508 μM, 0.00152 μM, 0.00457 μM, 0.0137 μM, 0.0411 μM, 0.123 μM, 0.370 μM, 1.11 μM, 3.33 μM, 10 μM) of Compound 1 and Compound 6 were respectively added into the above cells which were then cultured for 72 hours. The number of viable cells was determined via quantitative determination of ATP in living cells by using Cell Titer-Glo® (Promega, the USA) Chemical Luminescent Cell Viability Assay kit.

[2] = test system: multiple myeloma cell lines RPM18226; experiment: Cell proliferation (Cell Titer-Glo), RPMI8226; type: cell-based; conditions: Homo sapiens, RPMI-8226; RPMI8226, 72 hours; read-out: Effects on cell proliferation (GI50)
Procedure: as §1, §2

[3] = test system: acute myeloid leukemia cell lines MOLM16; experiment: Cell proliferation (Cell Titer-Glo), MOLM-16; type: cell-based; conditions: MOLM-16, 72 hours, read-out: Effects on cell proliferation (GI50)
Procedure: as §1, §2

[4] = molecular target: T1, TEL-BMX-BaF3 cells (stably expressing TEL-BMX activated kinase) (Homo sapiens, UniProt P51813); experiment: Cell proliferation (Cell Titer-Glo), BaF3-tel-BMX; type: cell-based; conditions: BaF3-tel-BMX (mouse BaF3 cells), 72 hours; read-out: Effects on cell proliferation (GI50)
T1 construct: expressed in transfected cells; host or cells: mouse BaF3 cells, retroviral MSCV-Puro; the other entry of the earlier key: ETV6 (P41212, Transcription factor ETV6)
T1 sequence (P51813 417-675 limits assumed): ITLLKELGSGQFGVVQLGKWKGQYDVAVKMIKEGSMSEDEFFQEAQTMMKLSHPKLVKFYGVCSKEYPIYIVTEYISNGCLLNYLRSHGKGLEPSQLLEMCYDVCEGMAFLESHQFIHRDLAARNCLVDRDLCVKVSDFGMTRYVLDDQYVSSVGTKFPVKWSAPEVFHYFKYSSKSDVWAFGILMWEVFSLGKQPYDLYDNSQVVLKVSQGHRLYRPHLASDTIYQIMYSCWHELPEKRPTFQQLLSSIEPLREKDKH
Procedure: as §1, §2

[5] = test system: acute myeloid leukemia cell lines M-07e; experiment: Cell proliferation (Cell Titer-Glo), M-07e; type: cell-based; conditions: 72 hours, read-out: Effects on cell proliferation (GI50)
Procedure: as §1, §2

BTK C481S = molecular target: T2, BTK C481S (Homo sapiens, UniProt Q06187, C481S); experiment: Btk cell-free kinase assay, BTK C481S mutant protein; type: biochemical; conditions: compound 30 mins at room temperature, then 100 μM ATP 20 min at 37° C.
T2 construct: made in house; host or cells: SF9 insect cells
T2 sequence (Q06187 whole entry C481S): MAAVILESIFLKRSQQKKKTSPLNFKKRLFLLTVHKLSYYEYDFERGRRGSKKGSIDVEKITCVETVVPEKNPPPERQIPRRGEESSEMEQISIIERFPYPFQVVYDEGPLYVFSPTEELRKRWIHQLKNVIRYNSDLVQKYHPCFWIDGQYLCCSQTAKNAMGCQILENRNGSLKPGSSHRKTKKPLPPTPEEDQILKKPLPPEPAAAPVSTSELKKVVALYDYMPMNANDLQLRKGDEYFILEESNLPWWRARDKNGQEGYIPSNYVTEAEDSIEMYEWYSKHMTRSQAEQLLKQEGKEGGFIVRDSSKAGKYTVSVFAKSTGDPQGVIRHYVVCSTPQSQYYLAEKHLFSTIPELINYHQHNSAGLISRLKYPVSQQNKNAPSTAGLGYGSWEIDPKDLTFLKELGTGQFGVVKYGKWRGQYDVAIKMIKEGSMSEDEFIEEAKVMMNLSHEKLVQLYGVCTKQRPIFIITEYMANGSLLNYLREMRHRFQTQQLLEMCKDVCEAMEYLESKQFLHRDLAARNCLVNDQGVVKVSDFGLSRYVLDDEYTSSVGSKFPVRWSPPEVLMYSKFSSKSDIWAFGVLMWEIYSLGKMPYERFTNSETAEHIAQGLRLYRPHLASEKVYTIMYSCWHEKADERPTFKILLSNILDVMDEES
Text: The BTK wild-type plasmid and the BTK mutant plasmid (C481S) were respectively transfected into SF9 cells (purchased from invitrogen), and after three generations of virus amplification, the P3-generation virus was used to transfect SF9 cells which were collected after 72-hour culture to obtain protein BTK WT and protein BTK C481S, which were then purified.

[6] = molecular target: T3, TEL-BLK-BaF3 cells (stably expressing TEL-BLK activated kinase) (Homo sapiens, UniProt P51451); experiment: Cell proliferation (Cell Titer-Glo), BaF3-tel-BLK; type: cell-based; conditions: BaF3-tel-BLK (mouse BaF3 cells), 72 hours; read-out: Effects on cell proliferation (GI50)
T3 construct: expressed in transfected cells; host or cells: mouse BaF3 cells, retroviral MSCV-Puro; the other entry of the earlier key: ETV6 (P41212, Transcription factor ETV6)
T3 sequence (P51451 241-494 limits assumed): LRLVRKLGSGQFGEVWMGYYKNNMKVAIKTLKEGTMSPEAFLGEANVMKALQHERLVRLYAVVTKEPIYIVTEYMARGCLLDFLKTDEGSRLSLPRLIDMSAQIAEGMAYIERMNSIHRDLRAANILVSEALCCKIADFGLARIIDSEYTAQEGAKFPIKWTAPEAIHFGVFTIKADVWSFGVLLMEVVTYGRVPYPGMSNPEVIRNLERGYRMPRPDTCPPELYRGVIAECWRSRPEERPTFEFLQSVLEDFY
Procedure: as §1, §2

leukemic cells K562 = experiment: Cell proliferation (Cell Titer-Glo), K562; type: cell-based; conditions: Homo sapiens; K562, 72 hours; read-out: Effects on cell proliferation (GI50)
Procedure: as §1, §2

[7] = test system: colon cancer cells HCT116; experiment: Cell proliferation (Cell Titer-Glo), HCT116; type: cell-based; conditions: Homo sapiens, HCT-116; HCT116, 72 hours; read-out: Effects on cell proliferation (GI50)
Procedure: as §1, §2

[8] = test system: B-cell lymphoma cells U2932; experiment: Cell proliferation (Cell Titer-Glo), U2932; type: cell-based; conditions: Homo sapiens; U2932, 72 hours; read-out: Effects on cell proliferation (GI50)
Procedure: as §1, §2

[9] = test system: acute promyelocytic leukemia cell line NB-4 (Lu+); experiment: Cell proliferation (Cell Titer-Glo), NB4; type: cell-based; conditions: NB4, 72 hours; read-out: Effects on cell proliferation (GI50)
Procedure: as §1, §2

[10] = test system: diffuse large B-cell lymphoma cell line OCI-LY10; experiment: Cell proliferation (Cell Titer-Glo), OCI-LY10; type: cell-based; conditions: Homo sapiens; OCI-LY10, 72 hours; read-out: Effects on cell proliferation (GI50)
Procedure: as §1, §2

[11] = test system: acute myeloid leukemia cell lines MOLM14; experiment: Cell proliferation (Cell Titer-Glo), MOLM14; type: cell-based; conditions: Homo sapiens, MOLM-14; MOLM14, 72 hours; read-out: Effects on cell proliferation (GI50)
Procedure: as §1, §2

SMILES	GI50 [1]	GI50 [2]	GI50 [3]	GI50 [4]	GI50 [5]	inhibitory effects against BTK C481S (BTK C481S)	GI50 [6]	GI50 (leukemic cells K562)	GI50 [7]	GI50 [8]	GI50 [9]	GI50 [10]	GI50 [11]	EC50 (BTK C481S; read-out: EC50 against BTK C481S)
CCC(=O)Nc1cc(Nc2cc(-c3cccc(NC(=O)c4ccc(C(C)(C)C)cc4)c3C)cn(C)c2=O)ccc1C(=O)N1CCOCC1 [Compound 6, N-(3-(5-((3-propanamide-4-(morpholin-4-carbonyl)phenyl)amino)-1-methyl-6-oxo-1,6-dihydropyridin-3-yl)-2-methylphenyl)-4-(tert-butyl)benzamide]	8 µM	4.7 µM	> 10 µM	4.1 µM	> 10 µM	no inhibitory effects	5.4 µM	> 10 µM	> 10 µM	> 10 µM	> 10 µM	3 to 10 µM	> 10 µM	–
C=CC(=O)Nc1cc(Nc2cc(-c3cccc(NC(=O)c4ccc(C(C)(C)C)cc4)c3C)cn(C)c2=O)ccc1C(=O)N1CCOCC1 [Compound 1, N-(3-(5-((3-acrylamide-4-(morpholin-4-carbonyl)phenyl)amino)-1-methyl-6-oxo-1,6-dihydropyridin-3-yl)-2-methylphenyl)-4-(tert-butyl)benzamide]	3.4 µM	2.9 µM	3.5 µM	0.38 µM	7.3 µM	–	4.7 µM	4.2 µM	> 10 µM	2.4 µM	6.6 µM	3.4 µM	6.4 µM	0.185 µM
